Assay results as given in patent US20220071932A1, “Compositions and Methods Against Stress-Induced Affective Disorders and Their Associated Symptoms” (The Trustees of Columbia University in the City of New York, priority 2019, published 2022).

Experiments:
c-fos = c-fos immunohistochemistry in hippocampus after CFC re-exposure; type: in vivo, mice; conditions: one week prior to CFC, sacrificed one hour after re-exposure; (R,S)-ketamine 30 mg/kg, FENM 20 mg/kg; vs saline
Procedure: Immunohistochemistry was performed as previously described (46). Mice were deeply anesthetized, and brains were fixed and extracted using transcardial perfusion. For c-fos immunohistochemistry, floating sections were used. Sections were first rinsed three times in 1×PBS and then blocked in 1×PBS with 0.5% Triton X-100 and 10% NDS for 2 hours at room temperature (RT). Incubation with primary antibodies was performed at 4° C. overnight (rabbit anti-c-fos, 1:5000, SySy, Göettingen, Germany, 226 003) in 1×PBS with 0.5% Triton X-100. Sections were then washed three times in 1×PBS and incubated with secondary antibody (Alexa 647 anti-rabbit, 1:500, Thermo Fisher Scientific, Waltham, Mass. A32733) for 2 hours at RT. Sections were then washed three times in 1×PBS, mounted on slides, and coverslipped with ProLong Gold (Invitrogen, Carlsbad, Calif.).
Fluorescent confocal micrographs were captured with a Leica TCS SPE-II confocal microscope with LAS X software. Bilateral hippocampal sections were imaged throughout the rostro-caudal axis of the HPC using a 20× objective. Identification of hippocampal regions involved acquiring 6 dorsal and ventral sections per mouse brain slice at 20×. […]
An investigator blind to treatment groups used FIJI software to count c-fos^+ immunoreactive cells in the DG, CA3, and CA1 throughout the entire rostrocaudal axis of the HPC. Cells were counted bilaterally. […]

NMDAR = conditions: relative to (R,S)-ketamine; cited from earlier work

SMILES	c-fos expression in the ventral CA3 of the hippocampus (c-fos)	affinity as NMDAR antagonist (NMDAR)
CNC1(c2ccccc2Cl)CCCCC1=O (racemic) [(R,S)-ketamine, reference compound]	significantly increased c-fos expression	–
NC12CC3CC(C1)CC(CCF)(C3)C2 [FENM, 1-amino-3-fluoroethyl-adamantane]	–	lower affinity than (R,S)-ketamine
